The text below walks through data of ChEMBL document CHEMBL1177754, “Onionin A from Allium cepa inhibits macrophage activation” (J Nat Prod, 2010).

Molecules are shown by their SMILES. Calls of active or inactive are those of the source. The rule behind the calls is not given here.

The subject of the test is Macrophage. Kind of test: Inhibition of CD163 expression in human monocyte-derived macrophages at 30 uM for 24 hrs treated before IL10 challenge for 2 days by cell-ELISA. It counts as functional, cell-based. For orientation: In an ELISA, binding on a coated surface is turned into a signal by an enzyme label.

Consider `C/C=C/[C@H]1[C@H](C)[C@@H](C)[C@@H]([SH+][O-])[S+]1[O-]` (stereo partly specified), for which the outcome was Active.
